Results from US20160082133A1, “CHEMICAL EXCHANGE SATURATION TRANSFER (CEST) BASED MRI USING REPORTER GENES AND SUBSTRATES AND METHODS THEREOF” (The Johns Hopkins University, priority 2013, published 2016).

Legend:
[1] = Exchange rate estimation by QUEST method; type: physicochemical; conditions: pH 7.4, 37° C.; cytosine 2 ppm, 5FC 2.4 ppm
Protocol: The exchange rate of exchangeable protons with a frequency of 2 ppm for cytosine and 2.4 ppm for 5FC at pH=7.4 was measured using the modified Quantifying Exchange using Saturation Time (QUEST) method (McMahon, M. T. et al. Magn Reson Med 2006, 55, 836). In brief, the CEST contrast for samples containing 20 mM cytosine or 5FC (40 mM of amine protons) at pH 7.4 was measured with saturation delays of 0.5, 1, 1.5, 2, 3, 5, and 9.5 sec, using a saturation field strength of 5.9 μT (300 Hz) and a repetition time (TR) set to 10 sec, using the RARE imaging sequence described above. The calculated MTRasym values were then fit using numerical solutions to the Bloch-McConnel equations with an exchange rate (kex). The water T1w and T2w were experimentally determined as approximately 4 sec and 1.6 sec, respectively, using the saturation recovery spin echo method and the CPMG multi-echo spin echo sequence, respectively. The fixed model parameters were water solute R1s=0.71 Hz and solute R2s=39 Hz.

[2] = target: T1, Escherichia coli CDase (CodA) (Escherichia coli, UniProt P25524); experiment: Deamination by crude recombinant CDase extracts measured using CEST MRI; type: biochemical; conditions: 20 mM substrate, crude CDase extract, 37° C.
T1 construct: 6xHis (C); made in house; host or cells: E. coli BL21 (DE3), crude protein extract
Protocol: FIGS. 9A-9D show monitoring of recombinant CDase activity using CEST MRI. (FIG. 9A) Western blot using an anti-six-histidine-tag antibody of protein extracts from E. coli engineered to express CD or HSV1-tk (TK). (FIG. 9B) Deamination of cytosine and 5FC (20 mM) by crude CDase extracts measured using CEST MRI at 37° C. and 9.4 T. Conversion was quantified as (1−MTR^tasym/MTR^0asym)×100%, where MTR^tasym/MTR^0asym are the contrasts at time t, and at t=0, respectively. (FIG. 9C, D) maps and statistical analysis (two tailed unpaired students t-test; n=3) of 20 mM (FIG. 9C) cytosine and (FIG. 9D) 5 FC incubated with CDase (0.6 ug crude protein) for 24 hours.
The gene encoding the E. coli Cytosine Deaminase (CDase, CodA) was obtained from the American Type Culture Collection (ATCC Cat. 4099). […] Both genes were sub-cloned into the pEXP5-CT expression vector (Invitrogen) in a reading frame with a C-terminal six-histidine tag under a T7 promoter. […] The recombinant proteins were expressed after induction in Magic Media™ (Invitrogen), and both could be detected with Western blot using an anti-6-histidine tag antibody. […]
Data processing was performed using custom-written scripts in MATLAB (Mathworks, Waltham, Mass.). CEST spectra were calculated from the mean of an ROI placed over each sample after B0 correction of the contrast on a per voxel basis. […]

9L cells [3] = experiment: CEST MRI of culture media, CDase activity in 9L cells; type: cell-based, Rat; conditions: CDase-expressing 9L cells, 48 h incubation
Source text: (§1) All MR images were acquired with a 9.4T Bruker Avance system equipped with a 15 mm sawtooth RF coil. A modified RARE sequence (TR=6.0 sec, effective TE=43.2 ms, RARE factor=16, slice thickness=0.7 mm, FOV=14×14 mm, matrix size=128×64, resolution=0.11×0.22 mm^2, and NA=2) including a magnetization transfer (MT) module (one CW pulse, B=[…] (150 Hz), 3 sec) was used to acquire CEST-weighted images from −6 ppm to 6 ppm (step=0.2 ppm) around the water resonance (0 ppm). The absolute water resonant frequency shift was measured using a Water Saturation Shift Reference (WASSR) (Kim, M. et al. Magnetic Resonance in Medicine 2009, 61, 1441) method modified (Liu, G. et al. Contrast Media Mol Imaging 2010, 5, 162) with Lorentzian analysis. […]
(§2) Data processing was performed using custom-written scripts in MATLAB (Mathworks, Waltham, Mass.). CEST spectra were calculated from the mean of an ROI placed over each sample after B0 correction of the contrast on a per voxel basis. The CEST signal was quantified using MTRasym at specific offsets of interest (i.e., &ω=+2 ppm for cytosine or +2.4 ppm for 5FC) using the definition: MTRasym=(S^−˜ω−S^+″ω)/S0, where and s[−˜ω, +Aω] is the water signal intensity in the presence of a saturation pulse at offsets ±Aω, and S0 is water signal intensity in the absence of a saturation pulse. […]

HEK293FT cells [4] = experiment: CEST MRI of culture media, CDase activity in HEK293FT cells; type: cell-based, Human; conditions: HEK-293FT; 7 mM cytosine or 10 mM 5FC
Source text: as §1, §2

C17.2 cells = experiment: 19F NMR detection of conversion of 5FC to 5FU, C17.2 cells; type: cell-based, mouse; design: key: (−): no 5FU was detected; conditions: 10 mM 5FC
Protocol: (§3) For each cell type, the same number of transduced (CD) or non-transduced (wild type, WT) cells were plated into 6-well plates (5.6×10^6 HEK293FT cells, 10^6 9 L cells, and 1.4×10^6 C17.2 cells, respectively). Approximately 6 hours later, fresh culture medium containing 7 mM cytosine or 10 mM 5FC was added to the cells. Fifty microliters of the culture media were collected at different time points up to 24 hours for HEK293FT cells (i.e. 0.5, 4, 6, and 24 hours), and up to 48 hours for the other two cell lines (i.e., 0.5, 4, 6, 24, and 48 hours). These samples were then transferred into capillaries and measured for CEST signal at 2 ppm for cytosine and 2.4 ppm for 5FC.
(§4) Studies were performed using a 500 MHz Bruker NMR spectrometer. ^19F NMR spectra of the enzymatic mixture or aqueous solutions of 10 mM 5FC and 5FU standards (FIG. 30 a and b) were acquired using a single-pulse sequence with a flip angle of 90°, TR=5 sec, and NA=32, carried out at 25° C. with the spectra centered at the resonance frequency of 5FC. NMR data were processed and plotted using Topspin (Bruker, M A). For the cell culture media incubated with 10 mM 5FC for 24 and 48 hours for all three cell types, the ^19F NMR spectrum was measured using the same protocol, except the number of averages was changed to 64 to improve SNR. 5FU peaks were only detected for HEK293FT cells after 24-hour and for 9L cells after 48 hours (FIG. 30 c,d). The complete results of the conversion detected using F NMR are listed in Table 1, as quantified by a conversion rate=peak area(5FU)/(peak area(5FU)+peak area(5FC)).

9L = experiment: Cell proliferation assay, 9L; type: cell-based, Rat; conditions: CD-transduced 9L, 10 mM 5FC, 40 hours
Protocol: (§5) Both wild type- and CD-transduced cells were plated in 96-well cell culture plates to reach a sufficient cell number before 5FC treatment. Then media were replaced with media containing 10 mM 5FC. After 40 hours of incubation, cell viability was determined using a […] assay kit (Invitrogen).

9L cells [5] = experiment: 19F NMR detection of conversion of 5FC to 5FU, 9L cells; type: cell-based, Rat; design: key: (−): no 5FU was detected; conditions: 10 mM 5FC
Protocol: as §3, §4

HEK293FT cells [6] = experiment: 19F NMR detection of conversion of 5FC to 5FU, HEK293FT cells; type: cell-based, Human; design: key: (−): no 5FU was detected; conditions: 24 hours, 10 mM 5FC
Protocol: as §3
as §4, with “NMR data were processed and plotted using Topspin (Bruker, M A).” left out, “The complete results of the conversion detected using F NMR are listed in Table 1, as quantified by a conversion rate=peak area(5FU)/(peak area(5FU)+peak area(5FC)).” left out

HEK293FT = experiment: Cell proliferation assay, HEK293FT; type: cell-based, Human; conditions: CD-transduced HEK293FT, 10 mM 5FC, 40 hours
Protocol: as §5

[7] = CEST MRI of pyrrolo-dC in PBS; type: physicochemical; conditions: 20 mM in PBS, 5.8 ppm, 11.7T
Protocol: (§6) Pyrrolo-dC was dissolved in 10 mM PBS at 20 mM concentration. CEST MRI experiments were performed on an 11.7T Bruker Avance system as previously described (G. Liu et al., Contrast Media Mol Imaging 5, 162 (2010)). A modified RARE (TR/TE=6000/9.4 ms) including a magnetization transfer module (B1=4.7 μT/4000 ms) was used to acquire CEST weighted images. The absolute water resonant frequency shift was measured using a modified WASSR method, with the same parameters as in CEST imaging except TR=1.5 sec and saturation pulse of B1=0.5 μT/250 ms. Mean CEST-spectra were derived from a ROI for each sample, after B0 correction for each voxel using MatLab. MTR asymmetry (MTRasym)=100×(S^−Δω−S^+Δω/S0 was computed at different offsets Δω. 9L rat glioma, engineered to express Drosophila melanogaster 2′-deoxynucleoside kinase (Dm-dNK; 9L^Dm-dNK) and control, non-expressing cells (9L^wt), 5×10^6 cells per group, were incubated for 4 hours at cell-culture medium containing 2 mM pyrrolo-dC. Then, the cells were washed with PBS, lysed and fluorescence was measured in triplicates using a plate reader (lex355 nm/lem460 nm).

Dm-dNK = target: T2, Dm-dNK (Drosophila melanogaster, UniProt Q9XZT6); experiment: Fluorescence of cell lysates after incubation with pyrrolo-dC; type: cell-based, rat; conditions: 2 mM, 4 hours
T2 construct: expressed in transfected cells; host or cells: 9L rat glioma cells transfected with a pcDNA vector
Protocol: as §6

9L^HSV1-tk cells = experiment: In vitro uptake assay; type: cell-based, rat; conditions: 1 and 3 h of incubation, 1 μCi
Protocol: One million cells (9L^wt and 9L^HSV1-tk in triplicates) were incubated in […] medium containing 1 μCi [^125I]FIAU at 37° C. for 1 and 3 h. Cells were pelleted by centrifugation and washed 3 times with cold PBS. Gamma counter was used to monitor the radioactivity of the incubating medium and the incubated cells. [^125I]FIAU uptake was determined as the relative radioactivity (in percentage) of the cells to that of the incubating [^125I]FIAU medium (without cells).

HSV1-TK = target: T3, HSV1-TK (Human herpesvirus 1, UniProt P0DTH5); experiment: SPECT/CT imaging of HSV1-TK expression; type: in vivo, mice; conditions: 3 h after iv injection
T3 construct: V5; expressed in transfected cells; host or cells: 9L rat glioma cells transfected with pcDNA3.1-HSV1-tk, single G418-selected clone, implanted in NOD-SCID mouse brain
Protocol: An X-SPECT small-animal SPECT/CT system (Gamma Medica-Ideas) was used for image acquisition as previously described (Nimmagadda et al., J. Nucl. Med. 2009, 50, 1124). Briefly, seven days after cell implantation, the mice were injected iv with 50.3 MBq (1.36 mCi) of ^[125I]FIAU. SPECT data were acquired 3 h after radiotracer injection, and the obtained images were coregistered with the corresponding 512 slice CT images. Fused SPECT/CT transaxial sections of 1 mm thickness were generated using Amira 5.2.0 software (Visage Imaging Inc.) showing the SPECT signal obtained from the brain.

T1 sequence (P25524 whole entry): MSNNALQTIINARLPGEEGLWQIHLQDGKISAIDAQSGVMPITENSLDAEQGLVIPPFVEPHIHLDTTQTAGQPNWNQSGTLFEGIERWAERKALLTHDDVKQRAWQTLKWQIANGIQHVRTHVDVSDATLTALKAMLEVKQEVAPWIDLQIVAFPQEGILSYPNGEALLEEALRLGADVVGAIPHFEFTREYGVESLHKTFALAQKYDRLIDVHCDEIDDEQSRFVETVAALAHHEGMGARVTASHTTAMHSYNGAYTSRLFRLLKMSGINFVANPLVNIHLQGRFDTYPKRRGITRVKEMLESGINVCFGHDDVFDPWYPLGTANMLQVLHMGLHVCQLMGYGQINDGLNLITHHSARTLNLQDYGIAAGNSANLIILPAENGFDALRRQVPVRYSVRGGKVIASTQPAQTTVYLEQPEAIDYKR
T2 sequence (Q9XZT6 whole entry): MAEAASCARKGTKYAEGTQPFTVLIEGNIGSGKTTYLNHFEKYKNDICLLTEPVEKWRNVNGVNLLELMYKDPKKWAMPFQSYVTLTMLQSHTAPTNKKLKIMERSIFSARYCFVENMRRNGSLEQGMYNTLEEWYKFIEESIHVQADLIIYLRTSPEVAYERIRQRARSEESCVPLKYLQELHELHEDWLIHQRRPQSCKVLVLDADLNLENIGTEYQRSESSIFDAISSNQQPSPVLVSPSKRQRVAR
T3 sequence (P0DTH5 whole entry): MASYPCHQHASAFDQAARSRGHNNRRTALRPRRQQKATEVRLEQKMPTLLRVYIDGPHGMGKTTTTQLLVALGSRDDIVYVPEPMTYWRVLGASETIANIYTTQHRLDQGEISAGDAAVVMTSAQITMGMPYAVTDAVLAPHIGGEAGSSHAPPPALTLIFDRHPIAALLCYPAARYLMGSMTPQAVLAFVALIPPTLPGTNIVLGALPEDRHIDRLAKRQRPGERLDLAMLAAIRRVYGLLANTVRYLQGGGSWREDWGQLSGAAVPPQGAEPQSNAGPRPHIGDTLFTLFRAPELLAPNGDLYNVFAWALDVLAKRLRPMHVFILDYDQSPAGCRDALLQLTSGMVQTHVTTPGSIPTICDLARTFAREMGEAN

**Q.** For `Nc1cc[nH]c(=O)n1` [cytosine], which “exchange rate (kex) of the amine protons, QUEST” value [1] is on record?
**A.** 8.1×10^2 Hz

**Q.** What about the “conversion by recombinant CDase after 24 h” value [2] of the same molecule?
**A.** nearly complete

**Q.** And the “relative change in MTRasym” value (9L cells [3])?
**A.** 50%

**Q.** What about the “incubation time at which a significant difference in MTRasym between transduced and nontransduced cells was observed” value (HEK293FT cells [4]) of the same molecule?
**A.** 4 h

**Q.** What does the source list for `Nc1nc(=O)[nH]cc1F` [5FC, 5-fluorocytosine]?
**A.** 19F NMR conversion of 5FC to 5FU (C17.2 cells; C17.2 CD, 24 hours): (−); 19F NMR conversion of 5FC to 5FU (C17.2 cells; C17.2 CD, 48 hours): (−); 19F NMR conversion of 5FC to 5FU (C17.2 cells; C17.2 WT, 24 hours): (−); 19F NMR conversion of 5FC to 5FU (C17.2 cells; C17.2 WT, 48 hours): (−); number of viable cells after 5FC treatment (9L): considerable decrease in the number of viable cells; 19F NMR conversion of 5FC to 5FU (9L cells [5]; 9L CD, 24 hours): (−); 19F NMR conversion of 5FC to 5FU (9L cells [5]; 9L CD, 48 hours): 8.5%; 19F NMR conversion of 5FC to 5FU (9L cells [5]; 9L WT, 24 hours): (−); 19F NMR conversion of 5FC to 5FU (9L cells [5]; 9L WT, 48 hours): (−); 19F NMR conversion of 5FC to 5FU (HEK293FT cells [6]; HEK293FT CD): 38.9%; 19F NMR conversion of 5FC to 5FU (HEK293FT cells [6]; HEK293FT WT): (−); conversion by recombinant CDase after 24 h [2]: not the case; number of viable cells after 5FC treatment (HEK293FT): considerable decrease in the number of viable cells; relative change in MTRasym (9L cells [3]): 12%; incubation time at which a significant difference in MTRasym between transduced and nontransduced cells was observed (HEK293FT cells [4]): 24 h

**Q.** With `Cc1cc2cn([C@H]3C[C@H](O)[C@@H](CO)O3)c(=O)nc2[nH]1` [pyrrolo-dC, Pyrrolo-2′-deoxycytidine] as the molecule, how does the “CEST contrast (MTRasym maps)” value [7] read?
**A.** high CEST contrast

**Q.** And the “fluorescence of lysate of incubated 9L^Dm-dNK cells” value (Dm-dNK)?
**A.** high fluorescence level

**Q.** And the “fluorescence of lysate of incubated 9L^wt cells” value (Dm-dNK)?
**A.** no fluorescence was detected

**Q.** For `O=c1[nH]c(=O)n([C@@H]2O[C@H](CO)[C@@H](O)[C@@H]2F)cc1[125I]` [[^125I]FIAU], which “uptake in 9L^HSV1-tk cells compared to 9L^wt cells” value (9L^HSV1-tk cells) is on record?
**A.** significant accumulation

**Q.** And the “accumulation in tumors by SPECT/CT” value (HSV1-TK)?
**A.** only at the ^9LHSV1-tk tumor
